From patent US6555692B1, “Preparation and use of bifunctional molecules having DNA sequence binding specificity” (California Institute of Technology, priority 1996, dated 2003)

Tests used:
[1] = test system: 5′-AGTATT-3′; assay: Quantitative DNase I footprint titration, 229 bp restriction fragment; assay type: binding
Experimental: (§1) ImPyPyPy-γ-ImPyPyPy-β-Dp and ImPyPyPy-γ-PyPyPyPy-β-Dp were synthesized by solid phase methods and purified by reversed phase HPLC. Equilibrium association constants for match and mismatch six base pair binding sites on a 3′^32P-labeled 229 bp restricted fragment were determined by quantitative DNase I footprint titration experiments. […] The specificity of ImPyPyPy-γ-ImPyPyPy-β-Dp and ImPyPyPy-γ-PyPyPyPy-β-Dp for their respective match sites results from very small structural changes.

[2] = test system: 5′-AACCAAGTACTTGGTA-3′; assay: Association constants, recognition of 16 base pairs; assay type: binding; conditions: for Specificity 5′-AACCAACTAGTTGGTA: Table 8, center mismatch; for Specificity 5′-AACCAAGTACTTGCGA: Table 8, edge mismatch; for Ka 5′-AACCAAGTACTTGGTA: Table 8, match site
Text: Table 8 illustrates recognition of 16 Base-Pairs by ImPyPyPy-X-ImImPy-γ-PyPyPy-β-Dp.

[3] = test system: 5′-TGTCAAAGACA-3′; assay: Recognition of 9-11 base pairs (Table 9); assay type: binding; conditions: 22° C. and pH 7.0
Text: (§2) Table 9 illustrates recognition of recognition of 9-11 base pairs by ImPyPy-X-ImPyPy-β-Dp.

[4] = test system: 5′-gcggtTGTCAacccg-3′; assay: Recognition of 9-11 base pairs (Table 9); assay type: binding; conditions: 22° C. and pH 7.0
Text: as §2

[5] = test system: 5′-TGTCAGACA-3′; assay: Recognition of 9-11 base pairs (Table 9); assay type: binding; conditions: 22° C. and pH 7.0
Text: as §2

[6] = test system: 5′-TGTCAAGACA-3′; assay: Recognition of 9-11 base pairs (Table 9); assay type: binding; conditions: 22° C. and pH 7.0
Text: as §2

[7] = test system: 5′-TGCGCA-3′; assay: DNase I footprint titration, pSES9hp fragment; assay type: binding
Text: The experimental target plasmid pSES9hp was constructed by hybridization of the inserts:
The plasmid pSES9hp was linearized with EcoRI and PvuII and then treated with Klenow fragment, deoxyadenosine 5′-[α-^32P]triphosphate and thymidine 5′-[α-^32P]triphosphate for 3′ labeling. Alternatively, pSES9hp was linearized with EcoRI, treated with calf alkaline phosphatase, and then 5′ labeled with T4 polynucleotide kinase and deoxyadenosine 5′- [γ-^32P]triphosphate. The 5′ labeled fragment was then digested with PvuII. The labeled fragment (3′ or 5′) was loaded onto a 5% non-denaturing polyacrylamide gel, and the desired 282 base pair band was visualized by autoradiography and isolated. Chemical sequencing reactions were performed according to published methods. (Maxam, A. M. & Gilbert, W. S. (1980). Sequencing End-Labeled DNA with Base-Specific Chemical Cleavages. Methods Enzymol. 65, 499-560; Iverson, B. L. & Dervan, P. B. (1987). Adenine-specific DNA chemical sequencing reaction. […], 7823-7830.)

[8] = test system: 5′-TGTTA-3′; conditions: cited from earlier work
[9] = test system: 5′-AGTACT-3′; assay: Quantitative DNase I footprint titration, 229 bp restriction fragment; assay type: binding
Experimental: as §1

Row | Molecule | 5′-TGTCAAAGACA-3′ [3] | 5′-gcggtTGTCAacccg-3′ [4] | 5′-TGTCAGACA-3′ [5] | 5′-TGTCAAGACA-3′ [6] | also measured
1 | CN(C)CCCNC(=O)CCNC(=O)c1cc(NC(=O)c2cc(NC(=O)c3cc(NC(=O)c4cc(NC(=O)CCCNC(=O)c5cc(NC(=O)c6cc(NC(=O)c7cc(NC(=O)c8nccn8C)cn7C)cn6C)cn5C)cn4C)cn3C)cn2C)cn1C [ImPyPyPy-γ-PyPyPyPy-β-Dp] | – | – | – | – | loss in binding energy ([1]; C—H to N replacement, 5′-AGTATT-3′ complex): ~1.3 kcal/mol; Kd ([1]; match site 5′-AGTATT-3′, read-out: concentration at which the match site is bound): 0.3 nM; lower affinity for single base pair mismatch site ([1]; mismatch 5′-AGTACT-3′ vs match 5′-AGTATT-3′): ~10 fold; reduction of affinity of the polyamide•5′-AGTATT-3′ complex on replacing a C—H with N ([1]; vs ImPyPyPy-γ-ImPyPyPy-β-Dp): ~10 fold
2 | CN(C)CCCNC(=O)CCNC(=O)c1cc(NC(=O)c2cc(NC(=O)c3cc(NC(=O)CCCNC(=O)c4cc(NC(=O)c5nc(NC(=O)c6nc(NC(=O)CCCCCNC(=O)c7cc(NC(=O)c8cc(NC(=O)c9cc(NC(=O)c%10nccn%10C)cn9C)cn8C)cn7C)cn6C)cn5C)cn4C)cn3C)cn2C)cn1C [ImPyPyPy-C6-ImImPy-γ-PyPyPy-β-Dp] | – | – | – | – | Specificity 5′-AACCAACTAGTTGGTA [2]: 1; Specificity 5′-AACCAAGTACTTGCGA [2]: 1; Ka 5′-AACCAAGTACTTGGTA [2]: 1 × 10^8
3 | CN(C)CCCNC(=O)CCNC(=O)c1cc(NC(=O)c2cc(NC(=O)c3nc(NC(=O)CCCCNC(=O)c4cc(NC(=O)c5cc(NC(=O)c6nccn6C)cn5C)cn4C)cn3C)cn2C)cn1C [ImPyPy-C5-ImPyPy-β-Dp] | 1 × 10^9 | 1 × 10^9 | 2 × 10^8 | 1 × 10^9 | –
4 | CN(C)CCCNC(=O)CCNC(=O)c1cc(NC(=O)c2cc(NC(=O)c3cc(NC(=O)CCNC(=O)c4cc(NC(=O)c5cc(NC(=O)c6nccn6C)cn5C)cn4C)cn3C)cn2C)cn1C [ImPyPy-β-PyPyPy-β-Dp] | 5 × 10^7 | 3 × 10^7 | 2 × 10^8 | 5 × 10^7 | –
5 | CN(C)CCCNC(=O)CCNC(=O)c1cc(NC(=O)c2cc(NC(=O)c3cc(NC(=O)CCCNC(=O)c4cc(NC(=O)c5nc(NC(=O)c6nc(NC(=O)CCCCNC(=O)c7cc(NC(=O)c8cc(NC(=O)c9cc(NC(=O)c%10nccn%10C)cn9C)cn8C)cn7C)cn6C)cn5C)cn4C)cn3C)cn2C)cn1C [ImPyPyPy-C5-ImImPy-γ-PyPyPy-β-Dp] | – | – | – | – | Specificity 5′-AACCAACTAGTTGGTA [2]: >3; Specificity 5′-AACCAAGTACTTGCGA [2]: >3; Ka 5′-AACCAAGTACTTGGTA [2]: 7 × 10^8
6 | CN(C)CCCNC(=O)CCNC(=O)c1cc(NC(=O)c2cc(NC(=O)c3nc(NC(=O)CCCCCCCNC(=O)c4cc(NC(=O)c5cc(NC(=O)c6nccn6C)cn5C)cn4C)cn3C)cn2C)cn1C [ImPyPy-C8-ImPyPy-β-Dp] | 1 × 10^7 | 1 × 10^7 | 1 × 10^7 | 3 × 10^7 | –
7 | CN(C)CCCNC(=O)CCNC(=O)c1cc(NC(=O)c2cc(NC(=O)c3nc(NC(=O)CCCCCCNC(=O)c4cc(NC(=O)c5cc(NC(=O)c6nccn6C)cn5C)cn4C)cn3C)cn2C)cn1C [ImPyPy-C7-ImPyPy-β-Dp] | 3 × 10^7 | 7 × 10^7 | 2 × 10^7 | 1 × 10^8 | –
8 | CN(C)CCCNC(=O)CCNC(=O)c1cc(NC(=O)c2nc(NC(=O)c3cc(NC(=O)c4nc(NC(=O)CCCNC(=O)c5cc(NC(=O)c6nc(NC(=O)c7cc(NC(=O)c8nccn8C)cn7C)cn6C)cn5C)cn4C)cn3C)cn2C)cn1C [ImPyImPy-γ-ImPyImPy-β-Dp] | – | – | – | – | Ka [7]: 4e+07 M⁻¹; specificity [7]: 4 fold
9 | CN(C)CCCNC(=O)CCNC(=O)c1cc(NC(=O)c2cc(NC(=O)c3nc(NC(=O)CCNC(=O)c4cc(NC(=O)CCNC(=O)c5cc(NC(=O)c6cc(NC(=O)c7nccn7C)cn6C)cn5C)cn4C)cn3C)cn2C)cn1C [ImPyPy-β-Py-β-ImPyPy-β-Dp] | 1 × 10^9 | – | 3 × 10^8 | 2 × 10^8 | Ka [4]: < 1e+08 M⁻¹
10 | CN(C)CCCNC(=O)CCNC(=O)c1cc(NC(=O)c2cc(NC(=O)c3cc(NC(=O)CCCNC(=O)c4cc(NC(=O)c5nc(NC(=O)c6nc(NC(=O)CCNC(=O)CCNC(=O)c7cc(NC(=O)c8cc(NC(=O)c9cc(NC(=O)c%10nccn%10C)cn9C)cn8C)cn7C)cn6C)cn5C)cn4C)cn3C)cn2C)cn1C [ImPyPyPy-β-β-ImImPy-γ-PyPyPy-β-Dp] | – | – | – | – | Specificity 5′-AACCAACTAGTTGGTA [2]: 1; Specificity 5′-AACCAAGTACTTGCGA [2]: 1; Ka 5′-AACCAAGTACTTGGTA [2]: 3 × 10^8
11 | cyclo-(ImPyPy-γ-PyPyPy-γ-) | – | – | – | – | equilibrium association constant Ka ([8]; 5′-TGTTA-3′ target site, prior art): 2.9e+09 M⁻¹; increase in Ka relative to the corresponding hairpin polyamide ImPyPy-γ-PyPyPy ([8]; 5′-TGTTA-3′): 40 fold; sequence-specificity versus single base pair mismatch sites [8]: 2 fold
12 | CN(C)CCCNC(=O)CCNC(=O)c1cc(NC(=O)c2cc(NC(=O)c3nc(NC(=O)CCCNC(=O)c4cc(NC(=O)c5cc(NC(=O)c6nccn6C)cn5C)cn4C)cn3C)cn2C)cn1C [ImPyPy-γ-ImPyPy-β-Dp] | 1 × 10^8 | 2 × 10^8 | 5 × 10^7 | 1 × 10^8 | –
13 | ImPyPy-γ-PyPyPy-Dp | – | – | – | – | sequence-specificity versus single base pair mismatch sites [8]: 30 fold
14 | CN(C)CCCNC(=O)CCNC(=O)c1cc(NC(=O)c2cc(NC(=O)c3nc(NC(=O)CCNC(=O)CCNC(=O)CCNC(=O)c4cc(NC(=O)c5cc(NC(=O)c6nccn6C)cn5C)cn4C)cn3C)cn2C)cn1C [ImPyPy-β-β-β-ImPyPy-β-Dp] | 7 × 10^7 | 1 × 10^7 | 1 × 10^7 | 1 × 10^7 | –
15 | Im-β-ImPy-γ-Im-β-ImPy-β-Dp [Im-βImPy-γ-Im-β-ImPy-β-Dp] | – | – | – | – | affinity (in words) ([7]; 5′-TGCGCA-3′ sequences): subnanomolar affinities
16 | CN(C)CCCNC(=O)CCNC(=O)c1cc(NC(=O)c2cc(NC(=O)c3nc(NC(=O)CCNC(=O)CCNC(=O)c4cc(NC(=O)c5cc(NC(=O)c6nccn6C)cn5C)cn4C)cn3C)cn2C)cn1C [ImPyPy-β-β-ImPyPy-β-Dp] | 1 × 10^7 | 2 × 10^7 | 1 × 10^7 | 5 × 10^7 | –
17 | CN(C)CCCNC(=O)CCNC(=O)c1cc(NC(=O)c2cc(NC(=O)c3nc(NC(=O)CCCCCCCCCCNC(=O)c4cc(NC(=O)c5cc(NC(=O)c6nccn6C)cn5C)cn4C)cn3C)cn2C)cn1C [ImPyPy-C11-ImPyPy-β-Dp] | 2 × 10^7 | 1 × 10^7 | 5 × 10^6 | 2 × 10^7 | –
18 | CN(C)CCCNC(=O)CCNC(=O)c1cc(NC(=O)c2cc(NC(=O)c3nc(NC(=O)CNC(=O)c4cc(NC(=O)c5cc(NC(=O)c6nccn6C)cn5C)cn4C)cn3C)cn2C)cn1C [ImPyPy-G-ImPyPy-β-Dp] | 3 × 10^7 | 3 × 10^7 | 1 × 10^8 | 3 × 10^7 | –
19 | CN(C)CCCNC(=O)CCNC(=O)c1cc(NC(=O)c2cc(NC(=O)c3cc(NC(=O)c4nc(NC(=O)CCCNC(=O)c5cc(NC(=O)c6cc(NC(=O)c7cc(NC(=O)c8nccn8C)cn7C)cn6C)cn5C)cn4C)cn3C)cn2C)cn1C [ImPyPyPy-γ-ImPyPyPy-β-Dp] | – | – | – | – | free energy difference ([9]; N to C—H replacement, 5′-AGTACT-3′ complex): ~2.5 kcali/mole; Kd ([9]; match site 5′-AGTACT-3′, read-out: concentration at which the match site is bound): 0.03 nM; lower affinity for single base pair mismatch site ([9]; mismatch 5′-AGTATT-3′ vs match 5′-AGTACT-3′): ~100 fold; reduction of affinity of the polyamide•5′-AGTACT-3′ complex on replacing a single nitrogen atom with C—H ([9]; vs ImPyPyPy-γ-PyPyPyPy-β-Dp): ~75 fold
20 | CN(C)CCCNC(=O)CCNC(=O)c1cc(NC(=O)c2cc(NC(=O)c3nc(NC(=O)CCNC(=O)c4cc(NC(=O)c5cc(NC(=O)c6nccn6C)cn5C)cn4C)cn3C)cn2C)cn1C [ImPyPy-β-ImPyPy-β-Dp] | 1 × 10^9 | 1 × 10^9 | 2 × 10^8 | 2 × 10^8 | –
